Measured values as given in patent US20200278355A1, “CONJUGATED PROTEINS AND USES THEREOF” (THE SCRIPPS RESEARCH INSTITUTE, priority 2017, published 2020).

Legend:
[1] = test system: cysteines in NSCLC cell proteomes (H460 cells); test: isoTOP-ABPP of compound-treated H460 cells, proteome-wide; type: cell-based, human; details: KEAP1-mutant NSCLCs
Procedure: For analysis of NR0B1 ligands or control compound reactivity, H460 cells or H460 cells expressing luciferase in a 10 cm plate were incubated with indicated compounds in serum/dye-free RPMI for 3 hours at 37° C. Cells were washed once ice-cold PBS and lysed in 1% Triton X-100 dissolved in PBS with protease inhibitors (Sigma) by sonication. Samples were clarified by centrifugation for 10 min at 16,000×g. Lysate was adjusted to 1.5 mg ml^−1 in 500 μL.
Samples were labeled for 1 h at ambient temperature with 100 μM iodoacetamide alkyne (1, IA-alkyne, 5 μL of 10 mM stock in DMSO). Samples were conjugated by copper-catalyzed azide-alkyne cycloaddition (CuAAC) to isotopically labeled, TEV-cleavable tags (TEV-tags). Heavy CuAAC reaction mixtures was added to the DMSO-treated or shGFP control samples and light CuAAC reaction mixture was added to compound-treated or shNRF2 samples. The CuAAC reaction mixture consisted of TEV tags (light or heavy, 10 μL of 5 mM stocks in DMSO, final concentration=100 μM), 1 mM tris(2-carboxyethyl)phosphine hydrochloride (TCEP; fresh 50× stock in water, final concentration=1 mM), ligand (17× stock in DMSO:t-butanol 1:4, final concentration=100 μM) and 1 mM CuSO4 (50× stock in water, final concentration=1 mM). The samples were allowed to react for 1 h at which point the samples were centrifuged (16,000×g, 5 min, 4° C.). […]

[2] = molecular target: T1, interactions of FLAG-tagged RBM45 or SNW1 with endogenous NR0B1 (Homo sapiens, UniProt P51843); test: NR0B1 protein interactions in compound-treated cells (FLAG immunoprecipitation, immunoblot); type: cell-based; details: for blockade of interactions of FLAG-tagged RBM45 or SNW1 with endogenous NR0B1: KEAP1-null HEK293T cells and KEAP1-mutant NSCLC cells; for blockade of interactions of FLAG-tagged RBM45 or SNW1 with endogenous NR0B1 / inhibition of NR0B1 interaction with FLAG-RBM45 or FLAG-SNW1: 3 h; for inhibition of NR0B1 interaction with FLAG-RBM45 or FLAG-SNW1: KEAP1-null HEK293T cells
T1 construct: endogenous in cells; host or cells: KEAP1-null HEK293T cells stably expressing FLAG-RBM45 or FLAG-SNW1
T1 sequence (P51843 1-470): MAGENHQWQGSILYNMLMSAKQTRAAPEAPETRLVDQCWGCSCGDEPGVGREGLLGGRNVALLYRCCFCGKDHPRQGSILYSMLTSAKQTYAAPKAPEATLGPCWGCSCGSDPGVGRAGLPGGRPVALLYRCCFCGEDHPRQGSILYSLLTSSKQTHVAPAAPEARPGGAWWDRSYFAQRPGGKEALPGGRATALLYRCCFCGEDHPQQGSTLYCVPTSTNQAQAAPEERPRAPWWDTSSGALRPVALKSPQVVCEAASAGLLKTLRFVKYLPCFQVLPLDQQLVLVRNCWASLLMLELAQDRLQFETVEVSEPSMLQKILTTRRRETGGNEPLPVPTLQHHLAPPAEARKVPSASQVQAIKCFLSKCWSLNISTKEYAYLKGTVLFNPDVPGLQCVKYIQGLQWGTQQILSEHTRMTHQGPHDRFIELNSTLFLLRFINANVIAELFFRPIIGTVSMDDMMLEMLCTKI
Procedure: Confluent 10 cm plates of indicated cell lines were rinsed once with warm PBS and incubated in serum/dye-free RPMI with indicated compounds or vehicle for 3 h at 37° C. Cells were washed once ice-cold PBS and snap frozen.
Cells were rinsed once with ice-cold PBS, and lysed by sonication in Triton IP buffer. Lysates were clarified by centrifugation at 16,000×g for 10 min. Samples were normalized to 1 mg ml^−1 and boiled following the addition of sample buffer. For FLAG- or HA-immunoprecipitations, FLAG or HA resins (30 μL, 50:50 slurry) were added to the pre-cleared lysates and incubated with rotation for 3 hours at 4° C. Following immunoprecipitation, the beads were washed once with IP buffer followed by 3 times with IP buffer containing 500 mM NaCl. Loading buffer (40 μL) was added to the immunoprecipitated proteins which were subsequently denatured by boiling. Proteins were resolved by SDS-PAGE, analyzed by immunoblotting and relative band intensities were quantified using ImageJ software.
Next it was asked whether BPK-26 and BPK-29 inhibited NR0B1 protein interactions in cells using two complementary systems. […] In both cell systems, BPK-26 and BPK-29, but not control compounds, blocked the interactions of FLAG-tagged RMB45 or SNW1 with endogenous NR0B1 (FIG. 6C and FIG. 12E-F).

Row | blockade of interactions of FLAG-tagged RBM45 or SNW1 with endogenous NR0B1 [2] | inhibition of NR0B1 interaction with FLAG-RBM45 or FLAG-SNW1 [2] | relative potency for blockade of NR0B1-protein interactions ([2]; in cells) | SMILES | overall proteomic selectivity [1]
1 | blocked | inhibit |  | O=C(CCl)N(Cc1cccc(Cl)c1F)c1ccc(Cl)nc1 [BPK-26, 2-chloro-N-(3-chloro-2-fluorobenzyl)-N-(6-chloropyridin-3-yl)acetamide] | good overall proteomic selectivity
2 | blocked | inhibit | better potency than BPK-26 | O=C(c1ccc(N2CCOCC2)cc1)N1CCCC(N(Cc2ccccc2)C(=O)CCl)CC1 (stereo not shown) [BPK-29, N-benzyl-2-chloro-N-(1-(4-morpholinobenzoyl)azepan-4-yl)acetamide] | good overall proteomic selectivity
